# Results from patent US20120264735A1 (priority 2009, published 2012).
# Biological target: T1, c-Met kinase (recombinant c-Met) (Homo sapiens, UniProt P08581)
# T1 construct: 0.27 nM recombinant c-Met
# Assay: In vitro kinase assay I (homogeneous time-resolved fluorescence tyrosine kinase assay)
# Type: biochemical
# Procedure, shortened: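 Biotinylated peptide (0.5 μM) phosphorylated by 0.2 nM recombinant c-Met with 50 μM MgATP, 60 min at room temperature, pH 7.4, 5% DMSO. EDTA stop; HTRF read with Eu-anti-phosphotyrosine antibody and streptavidin-APC. IC50 from 4-parameter logistic fit.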
# T1 sequence (P08581 25-1390): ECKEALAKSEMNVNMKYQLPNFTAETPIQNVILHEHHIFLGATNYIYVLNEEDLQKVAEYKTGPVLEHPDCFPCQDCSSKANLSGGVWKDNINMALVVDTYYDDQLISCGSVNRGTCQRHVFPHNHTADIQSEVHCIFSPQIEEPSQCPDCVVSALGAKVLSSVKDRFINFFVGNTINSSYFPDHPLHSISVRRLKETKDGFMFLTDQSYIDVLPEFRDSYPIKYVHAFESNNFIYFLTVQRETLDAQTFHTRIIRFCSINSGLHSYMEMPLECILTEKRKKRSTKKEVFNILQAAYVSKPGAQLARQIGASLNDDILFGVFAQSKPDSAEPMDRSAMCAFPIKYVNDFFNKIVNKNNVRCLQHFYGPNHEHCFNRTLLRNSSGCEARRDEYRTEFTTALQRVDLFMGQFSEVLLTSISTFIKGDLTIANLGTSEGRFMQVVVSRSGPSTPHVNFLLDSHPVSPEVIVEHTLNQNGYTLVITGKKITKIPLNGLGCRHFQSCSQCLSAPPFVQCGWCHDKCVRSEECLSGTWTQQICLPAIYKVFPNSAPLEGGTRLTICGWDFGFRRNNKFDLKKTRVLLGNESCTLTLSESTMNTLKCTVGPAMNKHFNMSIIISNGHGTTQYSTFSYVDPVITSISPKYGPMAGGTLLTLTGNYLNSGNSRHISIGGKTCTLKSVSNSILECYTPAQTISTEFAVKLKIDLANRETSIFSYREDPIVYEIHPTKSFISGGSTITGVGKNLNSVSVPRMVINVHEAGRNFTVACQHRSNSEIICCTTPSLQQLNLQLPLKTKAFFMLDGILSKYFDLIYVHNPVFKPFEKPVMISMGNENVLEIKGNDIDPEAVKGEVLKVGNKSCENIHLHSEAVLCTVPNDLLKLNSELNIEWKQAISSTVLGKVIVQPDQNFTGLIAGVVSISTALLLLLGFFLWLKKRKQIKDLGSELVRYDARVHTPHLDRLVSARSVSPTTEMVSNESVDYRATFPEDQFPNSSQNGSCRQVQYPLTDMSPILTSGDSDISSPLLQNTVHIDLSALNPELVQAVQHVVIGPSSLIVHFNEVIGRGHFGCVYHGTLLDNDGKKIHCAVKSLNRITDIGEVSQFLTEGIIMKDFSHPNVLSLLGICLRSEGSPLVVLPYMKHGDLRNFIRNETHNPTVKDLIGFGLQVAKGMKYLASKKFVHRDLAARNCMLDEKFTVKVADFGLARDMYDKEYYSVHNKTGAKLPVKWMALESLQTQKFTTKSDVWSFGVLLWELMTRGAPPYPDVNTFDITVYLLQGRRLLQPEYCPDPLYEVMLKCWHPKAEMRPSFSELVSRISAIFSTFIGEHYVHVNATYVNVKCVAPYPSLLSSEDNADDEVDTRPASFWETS
row,SMILES,IC50 [µM]
1,"CC(c1cccc(-c2ncc(OC(C)C(C)(C)O)cn2)c1)c1nn(-c2cnn(C)c2)ccc1=O (single isomer, unassigned) [Example 385, 3-{(1R or S)-1-[3-(5-{[(1R or S)-2-hydroxy-1,2-dimethylpropyl]oxy}pyrimidin-2-yl)phenyl]ethyl}-1-(1-methyl-1H-pyrazol-4-yl)pyridazin-4(1H)-one]",< 0.1
2,"CC(c1cccc(-c2ncc(C3CC3)cn2)c1)c1nn(-c2cnn(C)c2)ccc1=O (single isomer, unassigned) [Example 405, 3-{(1S or R)-1-[3-(5-cyclopropyl-pyrimidin-2-yl)phenyl]ethyl}-1-(1-methyl-1H-pyrazol-4-yl)pyridazin-4(1H)-one]",< 0.1
3,"CC(c1cccc(-c2ncc(C3CC3)cn2)c1)c1nn(-c2cnn(C)c2)ccc1=O (single isomer, unassigned) [Example 406, 3-{(1R or S)-1-[3-(5-cyclopropyl-pyrimidin-2-yl)phenyl]ethyl}-1-(1-methyl-1H-pyrazol-4-yl)pyridazin-4(1H)-one]",< 0.1
4,"CC1CCC(=O)N1[C@@H](C)COC(=O)Nc1cccc(Cc2nn(-c3cnn(C)c3)ccc2=O)c1 (single isomer, unassigned) [Example 610, (2S)-2-[(2R or S)-2-methyl-5-oxopyrrolidin-1-yl]propyl (3-{[1-(1-methyl-1H-pyrazol-4-yl)-4-oxo-1,4-dihydropyridazin-3-yl]methyl}phenyl)carbamate]",< 0.1
5,"COCCOC(=O)Nc1cccc(C(C)c2nn(-c3cnn(C)c3)ccc2=O)c1 (single isomer, unassigned) [Example 652, 2-methoxyethyl (3-{(1S or R)-1-[1-(1-methyl-1H-pyrazol-4-yl)-4-oxo-1,4-dihydropyridazin-3-yl]ethyl}phenyl)carbamate]",< 0.1
6,"COCCOC(=O)Nc1cccc(C(C)c2nn(-c3cnn(C)c3)ccc2=O)c1 (single isomer, unassigned) [Example 653, 2-methoxyethyl (3-{(1R or S)-1-[1-(1-methyl-1H-pyrazol-4-yl)-4-oxo-1,4-dihydropyridazin-3-yl]ethyl}phenyl)carbamate]",0.1 to 1
7,"CCOc1cnc(-c2cccc(C(F)c3nn(-c4cnn(C)c4)ccc3=O)c2)nc1 (single isomer, unassigned) [Example 655, 3-[(S or R)-[3-(5-ethoxypyrimidin-2-yl)phenyl](fluoro)methyl]-1-(1-methyl-1H-pyrazol-4-yl)pyridazin-4(1H)-one]",0.1 to 1
8,"CCOc1cnc(-c2cccc(C(F)c3nn(-c4cnn(C)c4)ccc3=O)c2)nc1 (single isomer, unassigned) [Example 656, 3-[(R or S)-[3-(5-ethoxypyrimidin-2-yl)phenyl](fluoro)methyl]-1-(1-methyl-1H-pyrazol-4-yl)pyridazin-4(1H)-one]",< 0.1
9,"CCn1cnc(-c2cccc(C(C)c3nn(-c4cnn(C)c4)ccc3=O)c2)n1 (single isomer, unassigned) [Example 680, 3-{(1S or R)-1-[3-(1-ethyl-1H-1,2,4-triazol-3-yl)phenyl]ethyl}-1-(1-methyl-1H-pyrazol-4-yl)pyridazin-4(1H)-one]",0.1 to 1
10,"CCn1cnc(-c2cccc(C(C)c3nn(-c4cnn(C)c4)ccc3=O)c2)n1 (single isomer, unassigned) [Example 681, 3-{(1R or S)-1-[3-(1-ethyl-1H-1,2,4-triazol-3-yl)phenyl]ethyl}-1-(1-methyl-1H-pyrazol-4-yl)pyridazin-4(1H)-one]",< 0.1
11,"CC(c1cccc(-c2ncn(C)n2)c1)c1nn(-c2cnn(C)c2)ccc1=O (single isomer, unassigned) [Example 682, 1-(1-methyl-1H-pyrazol-4-yl)-3-{(1S or R)-1-[3-(1-methyl-1H-1,2,4-triazol-3-yl)phenyl]ethyl} pyridazin-4(1H)-one]",1 to 3
12,"CC(c1cccc(-c2ncn(C)n2)c1)c1nn(-c2cnn(C)c2)ccc1=O (single isomer, unassigned) [Example 683, 1-(1-methyl-1H-pyrazol-4-yl)-3-{(1R or S)-1-[3-(1-methyl-1H-1,2,4-triazol-3-yl)phenyl]ethyl} pyridazin-4(1H)-one]",< 0.1
13,"CCCn1cnc(-c2cccc(C(C)c3nn(-c4cnn(C)c4)ccc3=O)c2)n1 (single isomer, unassigned) [Example 684, 1-(1-methyl-1H-pyrazol-4-yl)-3-{(1S or R)-1-[3-(1-propyl-1H-1,2,4-triazol-3-yl)phenyl]ethyl} pyridazin-4(1H)-one]",1 to 3
14,"CCCn1cnc(-c2cccc(C(C)c3nn(-c4cnn(C)c4)ccc3=O)c2)n1 (single isomer, unassigned) [Example 685, 1-(1-methyl-1H-pyrazol-4-yl)-3-{(1R or S)-1-[3-(1-propyl-1H-1,2,4-triazol-3-yl)phenyl]ethyl} pyridazin-4(1H)-one]",< 0.1

# Second part, the compound after the results:
row,IC50 [µM],SMILES
1,< 0.1,"C[C@H](Oc1cnc(-c2cccc(Cc3nn(-c4cnn(C)c4)ccc3=O)c2)nc1)[C@@H](C)O (single isomer, unassigned) [Example 377]"
2,< 0.1,"Cn1cc(-n2ccc(=O)c(Cc3cccc(-c4ncc(O[C@@H]5CCC[C@H]5O)cn4)c3)n2)cn1 (single isomer, unassigned) [Example 378]"
3,< 0.1,"Cn1cc(-n2ccc(=O)c(Cc3cccc(-c4ncc(O[C@H]5CCC[C@@H]5O)cn4)c3)n2)cn1 (single isomer, unassigned) [Example 379]"
4,< 0.1,"CC(c1cccc(-c2ncc(OCC(C)(C)O)cn2)c1)c1nn(-c2cnn(C)c2)ccc1=O (single isomer, unassigned) [Example 380, 3-((1S or R)-1-{3-[5-(2-hydroxy-2-methylpropoxy)pyrimidin-2-yl]phenyl}ethyl)-1-(1-methyl-1H-pyrazol-4-yl)pyridazin-4(1H)-one]"
5,< 0.1,"CC(c1cccc(-c2ncc(OCC(C)(C)O)cn2)c1)c1nn(-c2cnn(C)c2)ccc1=O (single isomer, unassigned) [Example 381, 3-((1R or S)-1-{3-[5-(2-hydroxy-2-methylpropoxy)pyrimidin-2-yl]phenyl}ethyl)-1-(1-methyl-1H-pyrazol-4-yl)pyridazin-4(1H)-one]"
6,< 0.1,"CC(c1cccc(-c2ncc(OC(C)C(C)(C)O)cn2)c1)c1nn(-c2cnn(C)c2)ccc1=O (single isomer, unassigned) [Example 382, 3-{(1R or S)-1-[3-(5-{[(1R or S)-2-hydroxy-1,2-dimethylpropyl]oxy}pyrimidin-2-yl)phenyl]ethyl}-1-(1-methyl-1H-pyrazol-4-yl)pyridazin-4(1H)-one]"
7,< 0.1,"CC(c1cccc(-c2ncc(OC(C)C(C)(C)O)cn2)c1)c1nn(-c2cnn(C)c2)ccc1=O (single isomer, unassigned) [Example 383, 3-{(1R or S)-1-[3-(5-{[(1R or S)-2-hydroxy-1,2-dimethylpropyl]oxy}pyrimidin-2-yl)phenyl]ethyl}-1-(1-methyl-1H-pyrazol-4-yl)pyridazin-4(1H)-one]"
8,< 0.1,"CC(c1cccc(-c2ncc(OC(C)C(C)(C)O)cn2)c1)c1nn(-c2cnn(C)c2)ccc1=O (single isomer, unassigned) [Example 384, 3-{(1R or S)-1-[3-(5-{[(1R or S)-2-hydroxy-1,2-dimethylpropyl]oxy}pyrimidin-2-yl)phenyl]ethyl}-1-(1-methyl-1H-pyrazol-4-yl)pyridazin-4(1H)-one]"
